Values after ≈ are worked out from the molar mass of the structure shown. Where a name gives a salt, the structure may show the parent alone. Read-outs that look alike come from different tables or passages of the source.
Columns and labels:
[1] = test system: P388 lymphocytic leukemia cell line; type: cell-based; conditions: murine P388 lymphocytic leukemia cell line
Experimental: (§1) Cytotoxicity assays were performed by the sulforhodamine B method, in which inhibition of formation of cellular protein is measured (Ref. 42). The mitotic index of MCF-7 breast cancer cells was determined as described previously (Ref. 27), except that cells were incubated in the presence of drug for 16 h prior to addition of the DNA stain.

[2] = test system: NCI-H460; test: cells; type: cell-based, human; conditions: for GI50: Homo sapiens, read-out: Lung-NSC NCI-H460 GI50
Experimental: as §1

[3] = test system: MCF-7; test: cells; type: cell-based, human; conditions: for GI50: Homo sapiens, MCF7, read-out: Breast MCF-7 GI50
Experimental: as §1

[4] = test system: BXPC-3; test: cells; type: cell-based, human; conditions: for GI50: Homo sapiens, read-out: Pancreas BXPC-3 GI50
Experimental: as §1

[5] = test system: DU145; test: cells; type: cell-based, human; conditions: for GI50: Homo sapiens, DU-145, read-out: Prostate DU145 GI50
Experimental: as §1

[6] = test system: SF-295; test: cells; type: cell-based, human; conditions: for GI50: Homo sapiens, read-out: CNS SF-295 GI50
Experimental: as §1

[7] = test system: KM20L2; test: cells; type: cell-based, human; conditions: for GI50: Homo sapiens, KM-20L2, read-out: Colon KM20L2 GI50
Experimental: as §1

[8] = test system: human cancer cell lines and murine P388; test: cells; type: cell-based; conditions: for IC50: Mus musculus, P388, read-out: Mean
Experimental: as §1

[9] = test system: Enterococcus faecalis ATCC 29212; test: Broth microdilution assay, Enterococcus faecalis; type: cell-based
Excerpt: (§2) Compounds were screened in broth microdilution assays according to National Committee for Clinical Laboratory Standards (Ref. 43-44). Assays were repeated at least twice on separate days.

[10] = Solubility in distilled water; type: physicochemical; conditions: for solubility / Solubility: 1 mL distilled water at 25° C.
[11] = test system: Cryptococcus neoformans ATCC 90112; test: Broth microdilution assay, Cryptococcus neoformans; type: cell-based; conditions: ATCC90112
Excerpt: as §2

[12] = test system: Neisseria gonorrhoeae ATCC 49226; test: Broth microdilution assay, Neisseria gonorrhoeae; type: cell-based
Excerpt: as §2

[13] = test system: Streptococcus pneumoniae ATCC 6303; test: Broth microdilution assay, Streptococcus pneumoniae; type: cell-based; conditions: ATCC6303
Excerpt: as §2

[14] = mean over the cell lines of Table 2

With `COc1ccc(/C=C\c2cc(OC)c3c(c2)OCO3)cc1NC(=O)[C@H](Cc1ccc(OC(C)(C)C)cc1)NC(=O)OCc1ccccc1` [Compound 7, 3,4-Methylenedioxy-5,4′-dimethoxy-3′-(O-tert-butyl-N^α-Z-L-Tyr)-amido-Z-stilbene] the “Leukemia P388 ED50” value [1] was 0.380 µg/mL, the “Lung-NSC NCI-H460 GI50” value [2] was 0.41 µg/mL and the “Breast MCF-7 GI50” value [3] was 0.36 µg/mL. For the same compound, the “Pancreas BXPC-3 GI50” value [4] was 0.049 µg/mL, the “Prostate DU145 GI50” value [5] was 0.39 µg/mL and the “CNS SF-295 GI50” value [6] was 0.44 µg/mL. For the same compound, the “Colon KM20L2 GI50” value [7] was 1.8 µg/mL and the Mean [8, 14] was 0.61 µg/mL.

With `COc1ccc(/C=C\c2cc(OC)c3c(c2)OCO3)cc1NC(=O)[C@H](Cc1ccc(OP(=O)(OCc2ccccc2)OCc2ccccc2)cc1)NC(=O)OCc1ccccc1` [Compound 8, 3,4-Methylenedioxy-5,4′-dimethoxy-3′-(O-bis-benzylphosphoryl-N^α-Z-L-Tyr)-amido-Z-stilbene] the “Leukemia P388 ED50” value [1] was 0.133 µg/mL, the “Lung-NSC NCI-H460 GI50” value [2] was >10 µg/mL and the “Breast MCF-7 GI50” value [3] was >10 µg/mL. The “Pancreas BXPC-3 GI50” value [4] was >10 µg/mL, the “Prostate DU145 GI50” value [5] was >10 µg/mL and the “CNS SF-295 GI50” value [6] was >10 µg/mL. The “Colon KM20L2 GI50” value [7] was >10 µg/mL and the MIC [9] was 64 µg/mL (≈ 74.7 µM).

For `COc1ccc(/C=C\c2cc(OC)c3c(c2)OCO3)cc1NC(=O)[C@@H](N)Cc1ccc(O)cc1.Cl` [Compound 9, 3,4-Methylenedioxy-5,4′-dimethoxy-3′-(N^α-L-Tyr)-amido-Z-stilbene hydrochloride], the “Leukemia P388 ED50” value [1] was 0.0329 µg/mL, the GI50 [2] was 0.096 µg/mL and the GI50 [3] was 0.041 µg/mL. For the same compound, the GI50 [4] was 0.064 µg/mL, the GI50 [5] was 0.08 µg/mL and the GI50 [6] was 0.064 µg/mL. The GI50 [7] was 0.034 µg/mL, the melting point was 169 to 170.5 °C and the solubility [10] was < 100 µg/mL. The Solubility ([10]; hydrochloride) was <100 µg/mL, the “water solubility (in words)” value [10] was “only sparing water solubility” and the IC50 [8, 14] was 0.059 µg/mL. For the same compound, the “inhibition of mini-panel of human cancer cell lines (in words)” value [8] was “strongly inhibiting”.

In the case of `COc1ccc(/C=C\c2cc(OC)c3c(c2)OCO3)cc1NC(=O)[C@H](CC(=O)OC(C)(C)C)NC(=O)OC(C)(C)C` [Compound 10, 3,4-Methylenedioxy-5,4′-dimethoxy-3′-(O^β-tert-butyl-N^α-Boc-L-Asp)-amido-Z-stilbene], the “Leukemia P388 ED50” value [1] is reported as 0.385 µg/mL, the GI50 [2] is reported as 3.8 µg/mL (≈ 6.66 µM) and the GI50 [3] is reported as 2.4 µg/mL (≈ 4.21 µM). It also gave a GI50 [4] of 3.4 µg/mL (≈ 5.96 µM), a GI50 [5] of 3 µg/mL (≈ 5.26 µM) and a GI50 [6] of 1.7 µg/mL (≈ 2.98 µM). For the same compound, the GI50 [7] was 2.3 µg/mL (≈ 4.03 µM) and the IC50 [8, 14] was 2.4 µg/mL (≈ 4.21 µM).

In the case of `COc1ccc(/C=C\c2cc(OC)c3c(c2)OCO3)cc1NC(=O)[C@@H](N)CC(=O)[O-].[Na+]` [Compound 11, Sodium 3,4-methylenedioxy-5,4′-dimethoxy-3′-(N^α-L-Asp)-amido-Z-stilbene], the “Leukemia P388 ED50” value [1] is reported as 0.361 µg/mL, the GI50 [2] is reported as 0.3 µg/mL and the GI50 [3] is reported as 0.51 µg/mL. It also gave a GI50 [4] of 0.38 µg/mL, a GI50 [5] of 0.33 µg/mL and a GI50 [6] of 0.25 µg/mL. The GI50 [7] was 0.19 µg/mL, the melting point was 168 to 170 °C and the Solubility [10] was <100 µg/mL. The solubility [10] was < 100 µg/mL, the “water solubility (in words)” value [10] was “only sparing water solubility” and the IC50 [8, 14] was 0.33 µg/mL.

With `COc1ccc(/C=C\c2cc(OC)c3c(c2)OCO3)cc1NC(=O)[C@H](C)[C@@H](OC)[C@@H]1CCCN1C(=O)OC(C)(C)C` [Compound 13, 3,4-Methylenedioxy-5,4′-dimethoxy-3′-(N^α-Boc-L-Dap)-amido-Z-stilbene] the “Leukemia P388 ED50” value [1] was 0.225 µg/mL, the GI50 [2] was 0.52 µg/mL (≈ 0.914 µM) and the GI50 [3] was 0.53 µg/mL (≈ 0.932 µM). For the same compound, the GI50 [4] was 0.58 µg/mL (≈ 1.02 µM), the GI50 [5] was 0.38 µg/mL (≈ 0.668 µM) and the GI50 [6] was 0.75 µg/mL (≈ 1.32 µM). It also gave a GI50 [7] of 1.9 µg/mL (≈ 3.34 µM), an MIC [11] of 64 µg/mL (≈ 113 µM) and an IC50 [8, 14] of 0.7 µg/mL (≈ 1.23 µM).

With `COc1ccc(/C=C\c2cc(OC)c3c(c2)OCO3)cc1NC(=O)[C@H](C)[C@@H](OC)[C@@H]1CCCN1` [Compound 14, 3,4-Methylenedioxy-5,4′-dimethoxy-3′-(N^α-L-Dap)-amido-Z-stilbene TFA salt] the MIC ([12]; ATCC49226, read-out: MIC) was 16 µg/mL, the “Leukemia P388 ED50” value [1] was 0.0263 µg/mL and the MIC [13] was 8 to 16 µg/mL. It also gave a GI50 [2] of 0.083 µg/mL, a GI50 [3] of 0.054 µg/mL and a GI50 [4] of 0.23 µg/mL. It also gave a GI50 [5] of 0.07 µg/mL, a GI50 [6] of 0.062 µg/mL and a GI50 [7] of 0.26 µg/mL. The MIC [11] was 64 µg/mL, the MIC ([9]; ATCC29212, read-out: MIC) was 32 to 64 µg/mL and the IC50 [8, 14] was 0.11 µg/mL. For the same compound, the “inhibition of mini-panel of human cancer cell lines (in words)” value [8] was “strongly inhibiting”.

In the case of “Sodium 3,4-methylenedioxy-5,4′-dimethoxy-3′-(L-Tyr)-amido-Z-stilbene 3′-O,N^α-diphosphate [Compound 6]”, the MIC [12] is reported as 4 µg/mL, the “Leukemia P388 ED50” value [1] is reported as 0.270 µg/mL and the “Lung-NSC NCI-H460 GI50” value [2] is reported as >1 µg/mL. For the same compound, the “Breast MCF-7 GI50” value [3] was 1.3 µg/mL, the “Prostate DU145 GI50” value [5] was >1 µg/mL and the “CNS SF-295 GI50” value [6] was >1 µg/mL. The “Colon KM20L2 GI50” value [7] was >1 µg/mL, the Solubility [10] was <100 µg/mL and the “water solubility (in words)” value [10] was “only sparing water solubility”.

From patent US20090221666A1, “STILBENE DERIVATIVES AND METHODS OF INHIBITING CANCER CELL GROWTH AND MICROBIAL GROWTH” (priority 2005, published 2009)
